# Tested on: HOP-62 multicell spheroids with HUVEC/MSC, viability
# Experiment: Anticancer human tumor HOP-62 cell line growth inhibition [KRAS2];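 note: viability read after a week of compound exposure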;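 for viability, T/C: 100% = DMSO vehicle-treated spheroids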
# Conditions: for IC50: curve of first compound; for viability, T/C: stronger effect = lower value
# Outline: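 KRAS-mutant tumor cells were grown as spheroids with HUVEC endothelial cells and human MSCs as stroma. Targeted agents were tested alone and with KRAS pathway inhibitors. Doses started at or near clinical Cmax, or 10 microM, descending half-log.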
# [1] = second compound 0.1 µM, first compound 0.0316 µM
# [2] = second compound 0.1 µM, first compound 0.1 µM
# [3] = second compound 0.316 µM, first compound 0.0316 µM
# [4] = second compound 0.316 µM, first compound 0.1 µM
# [5] = second compound 1 µM, first compound 0.0316 µM
# [6] = second compound 1 µM, first compound 0.1 µM
# [7] = second compound 3.16 µM, first compound 0.0316 µM
# [8] = second compound 3.16 µM, first compound 0.1 µM
# [9] = second compound 10 µM, first compound 0.0316 µM
# [10] = second compound 10 µM, first compound 0.1 µM
# [11] = second compound 0.1 µM, first compound 0.316 µM
# [12] = second compound 0.1 µM, first compound 1 µM
# [13] = second compound 0.1 µM, first compound 3.16 µM
# [14] = second compound 0.1 µM, first compound 10 µM
# [15] = second compound 0.316 µM, first compound 0.316 µM
# [16] = second compound 0.316 µM, first compound 1 µM
# [17] = second compound 0.316 µM, first compound 3.16 µM
# [18] = second compound 0.316 µM, first compound 10 µM
# [19] = second compound 1 µM, first compound 0.316 µM
# [20] = second compound 1 µM, first compound 1 µM
# [21] = second compound 1 µM, first compound 3.16 µM
# [22] = second compound 1 µM, first compound 10 µM
# [23] = second compound 3.16 µM, first compound 0.316 µM
# [24] = second compound 3.16 µM, first compound 1 µM
# [25] = second compound 3.16 µM, first compound 3.16 µM
# [26] = second compound 3.16 µM, first compound 10 µM
# [27] = second compound 10 µM, first compound 0.316 µM
# [28] = second compound 10 µM, first compound 1 µM
# [29] = second compound 10 µM, first compound 3.16 µM
# [30] = second compound 10 µM, first compound 10 µM
Structure (SMILES),IC50 (second compound 0.1 µM),IC50 (second compound 0.316 µM),IC50 (second compound 1 µM),IC50 (second compound 3.16 µM),IC50 (second compound 10 µM),"viability, T/C [1]","viability, T/C [2]","viability, T/C [3]","viability, T/C [4]","viability, T/C [5]","viability, T/C [6]","viability, T/C [7]","viability, T/C [8]","viability, T/C [9]","viability, T/C [10]","viability, T/C [11]","viability, T/C [12]","viability, T/C [13]","viability, T/C [14]","viability, T/C [15]",further results
CN(C)C/C=C/C(=O)Nc1cc2c(Nc3ccc(F)c(Cl)c3)ncnc2cc1O[C@H]1CCOC1 + CNCc1ccccc1-c1csc(C(C)Nc2nc(C)nc3cc(OC)c(OC)cc23)c1,> 100 nM,> 100 nM,> 100 nM,0.515 nM,< 0.316 nM,111%,96.5%,113%,108%,85.8%,101%,31.4%,14%,0.16%,1.46%,,,,,,"viability, T/C (second compound 0.1 µM, first compound 0.000316 µM): 110%; viability, T/C (second compound 0.1 µM, first compound 0.001 µM): 106%; viability, T/C (second compound 0.1 µM, first compound 0.00316 µM): 111%; viability, T/C (second compound 0.1 µM, first compound 0.01 µM): 115%; viability, T/C (second compound 0.316 µM, first compound 0.000316 µM): 124%; viability, T/C (second compound 0.316 µM, first compound 0.001 µM): 115%; viability, T/C (second compound 0.316 µM, first compound 0.00316 µM): 110%; viability, T/C (second compound 0.316 µM, first compound 0.01 µM): 109%; viability, T/C (second compound 1 µM, first compound 0.000316 µM): 101%; viability, T/C (second compound 1 µM, first compound 0.001 µM): 105%; viability, T/C (second compound 1 µM, first compound 0.00316 µM): 101%; viability, T/C (second compound 1 µM, first compound 0.01 µM): 99.8%; viability, T/C (second compound 3.16 µM, first compound 0.000316 µM): 73.8%; viability, T/C (second compound 3.16 µM, first compound 0.001 µM): 16.4%; viability, T/C (second compound 3.16 µM, first compound 0.00316 µM): 19.2%; viability, T/C (second compound 3.16 µM, first compound 0.01 µM): 6.17%; viability, T/C (second compound 10 µM, first compound 0.000316 µM): 0.18%; viability, T/C (second compound 10 µM, first compound 0.001 µM): 0.14%; viability, T/C (second compound 10 µM, first compound 0.00316 µM): 0.15%; viability, T/C (second compound 10 µM, first compound 0.01 µM): 0.15%"
COC(=O)c1ccc2c(C(=Nc3ccc(N(C)C(=O)CN4CCN(C)CC4)cc3)c3ccccc3)c(O)[nH]c2c1 + CNCc1ccccc1-c1csc(C(C)Nc2nc(C)nc3cc(OC)c(OC)cc23)c1,246 nM,49.3 nM,< 31.6 nM,< 31.6 nM,< 31.6 nM,68.1%,64.7%,48.3%,54.6%,43%,32.2%,12.6%,0.12%,0.12%,0.16%,40.1%,34.6%,29.5%,5.99%,35.6%,"viability, T/C [16]: 31.4%; viability, T/C [17]: 16.1%; viability, T/C [18]: 3.78%; viability, T/C [19]: 38.6%; viability, T/C [20]: 29.8%; viability, T/C [21]: 0.17%; viability, T/C [22]: 0.9%; viability, T/C [23]: 0.09%; viability, T/C [24]: 0.09%; viability, T/C [25]: 0.07%; viability, T/C [26]: 0.1%; viability, T/C [27]: 45.8%; viability, T/C [28]: 0.09%; viability, T/C [29]: 0.08%; viability, T/C [30]: 0.35%"
O=C(c1cc(Cc2n[nH]c(=O)c3ccccc23)ccc1F)N1CCN(C(=O)C2CC2)CC1 + CNCc1ccccc1-c1csc(C(C)Nc2nc(C)nc3cc(OC)c(OC)cc23)c1,7080 nM,6810 nM,6100 nM,< 31.6 nM,< 31.6 nM,105%,106%,85.7%,84.3%,84.7%,85.3%,35.1%,35.4%,0.17%,0.21%,97.6%,86%,65.7%,43.3%,83.2%,"viability, T/C [16]: 85.3%; viability, T/C [17]: 65.9%; viability, T/C [18]: 42.1%; viability, T/C [19]: 78.9%; viability, T/C [20]: 83.2%; viability, T/C [21]: 59.5%; viability, T/C [22]: 42.8%; viability, T/C [23]: 28.4%; viability, T/C [24]: 0.6%; viability, T/C [25]: 42.3%; viability, T/C [26]: 0.43%; viability, T/C [27]: 29.1%; viability, T/C [28]: 0.15%; viability, T/C [29]: 0.14%; viability, T/C [30]: 1.69%"
